Where no end group is shown, it is not given here.
What follows are sequences tested against T1, I‐A^b MHC II molecules (Mus musculus, UniProt P14434+P14483) (assay: I-A^b binding assay: inhibition of binding of a high-affinity radiolabeled peptide). Settings: competition with radiolabeled peptide ROIV (0.1–1 nM); purified I-A^b from LB27.4 B-cell lymphoma; room temperature, 2-day incubation; six concentrations; IC50 approximates Kd.
T1 construct: endogenous in cells; host or cells: mouse B-cell lymphoma LB27.4
T1 sequence (P14434 24-256): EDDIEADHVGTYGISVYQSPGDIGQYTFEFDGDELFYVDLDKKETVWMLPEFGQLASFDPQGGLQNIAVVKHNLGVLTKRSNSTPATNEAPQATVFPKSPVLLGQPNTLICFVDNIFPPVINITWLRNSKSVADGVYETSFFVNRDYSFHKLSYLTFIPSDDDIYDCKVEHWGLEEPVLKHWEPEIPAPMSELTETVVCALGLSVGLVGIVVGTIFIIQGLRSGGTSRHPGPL
T1 sequence (P14483 28-265): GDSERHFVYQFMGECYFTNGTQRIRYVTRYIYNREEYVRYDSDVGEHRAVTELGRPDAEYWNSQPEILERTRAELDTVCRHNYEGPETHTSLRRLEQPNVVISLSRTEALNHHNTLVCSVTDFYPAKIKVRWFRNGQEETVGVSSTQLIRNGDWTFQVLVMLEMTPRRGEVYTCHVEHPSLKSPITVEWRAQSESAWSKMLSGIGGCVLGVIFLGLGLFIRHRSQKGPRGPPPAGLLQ
Method: We used mass spectrometry to globally characterize Pb antigenic peptides presented by MHC II on the surface of DC (Fig 1A). We immunoprecipitated the MHC II molecules from a splenic DC tumor cell line called MutuDC (Fuertes Marraco et al, 2012), incubated with Pb‐parasitized RBC (pRBC). Peptide‐loaded MHC II are trimers of I‐A^bα chain, I‐A^bβ chain, and antigenic peptide, which, depending on the affinity of the loaded peptide, can remain stable in SDS without prior boiling (Natarajan et al, 1999). To ensure that our protocol allowed the pull‐down of peptide‐MHC II trimers and not just of single I‐A^bβ chain, we compared the migration of eluates with and without prior boiling, confirming that the immunoprecipitated material was SDS‐stable (Fig 1B). Although genetically very close to PbA (Otto et al, 2014), several variants of Pb causing different pathophysiological outcomes have been described (de Souza et al, 2010). Pb K173 (PbK) being the most “distant” from PbA (although SNPs were found only in 469 of […]; Otto et al, 2014), we decided to perform this analysis both with PbA and PbK pRBC. This led to the identification of a total of 372 unique I‐A^b‐eluted peptides, comprising 330 mouse sequences and 42 Pb sequences (Fig 1C, Dataset EV1), derived from 13 putative Pb antigenic proteins (Dataset EV2). In line with the modest level of polymorphisms between PbA and PbK, none of those source antigens was polymorphic. Remarkably, for seven antigens, we recovered multiple peptides containing a core of 11–16 amino acids (aa) and various N‐ or C‐terminal extensions (Dataset EV2). This feature is a typical property of MHC II ligands (Bozzacco et al, 2011; Sofron et al, 2016). For each set of nested peptides, we further analyzed the longest spanning sequence comprising all recovered sequences, for example, NALYNYSIPRPNVTSNL for ETRAMP10.2 (PBANKA_0517000) or […] for LDH (PBANKA_1340100), resulting in a consolidated list of 14 peptides (Table 1). We evaluated the I‐A^b binding affinity of these 14 peptides by quantifying their ability to inhibit binding of a high‐affinity radiolabeled peptide (Sidney et al, 2013).
Purification of I‐A^b MHC II molecules by affinity chromatography and the assay based on the inhibition of binding of a high‐affinity radiolabeled peptide to quantitatively measure peptide binding were described elsewhere (Sidney et al, 2013). Briefly, the mouse B‐cell lymphoma LB27.4 was used as a source of MHC molecules. A high‐affinity radiolabeled peptide (0.1–1 nM; peptide ROIV, sequence YAHAAHAAHAAHAAHAA) was co‐incubated at room temperature with purified MHC in the presence of a cocktail of protease inhibitors and an inhibitor peptide. Following a 2‐day incubation, MHC‐bound radioactivity was determined by capturing MHC/peptide complexes on mAb (Y3JP)‐coated Lumitrac 600 plates (Greiner Bio‐one), and measuring bound cpm using the TopCount (Packard Instrument Co) microscintillation counter. The concentration of peptide yielding 50% inhibition of the binding of the radiolabeled peptide was calculated. Under the conditions utilized, where [label] < [MHC] and IC50 ≥ [MHC], the measured IC50 values are reasonable approximations of the true Kd values. Each competitor peptide was tested at six different concentrations covering a 100,000‐fold range. The “cold” probe was used as a positive control in each experiment.

Q: With APSEQTTTPEAATAASN [MSP1] as the sequence, how does the IC50 read?
A: Its IC50 is 1350 nM.

Q: DNEYDFSGKAALVYGQ [ATPSYN] was tested. Which IC50 did it give?
A: Its IC50 is 104 nM.

Q: Which IC50 does the source give for GGSTYIAAKVNEAKD [TIM14] here?
A: The IC50 was 302 nM.

Q: For GINHEKYNSSQTIVSNAS [GAPDH.1], which IC50 is on record?
A: Its IC50 is 2420 nM.

Q: With INDRNFIATTALSSTEE [AMA1] as the sequence, how does the IC50 read?
A: The IC50 was 818 nM.

Q: With KILYNSAKPNSDLH [END70] as the sequence, how does the IC50 read?
A: The IC50 was 478 nM.

Q: With LHASPYVAPAAAIIEMAE [LDH] as the sequence, how does the IC50 read?
A: Its IC50 is 110 nM.

Q: Which IC50 does the source give for LIPEYNEAAIMLSEKK [PDI] here?
A: The IC50 was 166 nM.

Q: Which IC50 does the source give for LMTTVHASTANQLVV [GAPDH.2] here?
A: The IC50 was 980 nM.

Q: LSEVVIHPETNYALTG [M1] was tested. Which IC50 did it give?
A: The IC50 was 15900 nM.

Q: With NALYNYSIPRPNVTSNL [ETRAMP] as the sequence, how does the IC50 read?
A: Its IC50 is 87 nM.

Q: For SGKVVEENPKAIKSGDS [EF1a], which IC50 is on record?
A: Its IC50 is 2700 nM.

Q: TEVPSLVPPTTNTSHAAPAH [MAHRP] was tested. Which IC50 did it give?
A: Its IC50 is 872 nM.

Q: With TTLGIFRAAVPSGASTG [ENO] as the sequence, how does the IC50 read?
A: The IC50 was 115 nM.

Source: publication PMC5666312, “Profiling MHC II immunopeptidome of blood‐stage malaria reveals that cDC1 control the functionality of parasite‐specific CD4 T cells” (EMBO Molecular Medicine, 2017)
